Like-named read-outs stand apart in the source and are kept apart here.
Assays:
[1] = system: tumor allograft model mice; experiment: Tumor allograft model mouse (Lewis lung cancer cells); assay type: in vivo
Method: Tumors were measured by using vernier calipers, and tumor volumes were calculated as a product of length by width by width. After the tumor reached a certain size, the compound (100 mg/kg) was intraperitoneally administered 30 minutes before the intraperitoneal administration of 20 mg/kg of cisplatin.
Renal tubular damage was scored as follows.

[2] = system: cisplatin-induced kidney injury model mice; experiment: Cisplatin-induced kidney injury model mouse; details: for BUN level in serum / Cre level in serum: compound 25, 50, 100 mg/kg i.p. 30 minutes before cisplatin 20 mg/kg, third day
Method: (§5) To create cisplatin-induced kidney injury model mice, cisplatin (20 mg/kg) was administered once by intraperitoneal administration to male C57BL/6J mice with the body weight of 20 to 25 g (Japan SLC). To examine the kidney protection effect (prophylactic effect) of the compounds expressed by formulae (2) and (3) (hereafter, simply referred to as “compound”) on a cisplatin-induced kidney injury, the compound was intraperitoneally administered with doses of 0, 25, 50, and 100 mg/kg 30 minutes before the cisplatin injection. The mice were sacrificed on the third day after the cisplatin injection. Samples of the blood and the kidneys were taken and preserved at −80° C. for further analysis.
(§6) The levels of creatinine (Cre) and blood urea nitrogen (BUN) in serum were measured by using a fully automated blood biochemistry analyzer (BioMajesty JCA-BM9130) in accordance with a manufacturer-instructed method.

[3] = system: cisplatin-induced kidney injury model mice; details: mouse, in vivo
Method: as §5, §6

recombinant CCBL1 (KAT1) = target: T1, recombinant CCBL1 (KAT1) (Homo sapiens, UniProt Q16773); experiment: Screening of KAT1 (CCBL1) inhibitory activity, L-kynurenine fluorescence assay; assay type: biochemical; details: for inhibition at 10 µM: 10 μM of the compound, 1 mM L-kynurenine, room temperature 2 hours; for CCBL1 (KAT1) inhibitory activity, in words: screening result
T1 construct: made in house; host or cells: Sf9 insect cells (baculovirus)
T1 sequence (Q16773 1-422): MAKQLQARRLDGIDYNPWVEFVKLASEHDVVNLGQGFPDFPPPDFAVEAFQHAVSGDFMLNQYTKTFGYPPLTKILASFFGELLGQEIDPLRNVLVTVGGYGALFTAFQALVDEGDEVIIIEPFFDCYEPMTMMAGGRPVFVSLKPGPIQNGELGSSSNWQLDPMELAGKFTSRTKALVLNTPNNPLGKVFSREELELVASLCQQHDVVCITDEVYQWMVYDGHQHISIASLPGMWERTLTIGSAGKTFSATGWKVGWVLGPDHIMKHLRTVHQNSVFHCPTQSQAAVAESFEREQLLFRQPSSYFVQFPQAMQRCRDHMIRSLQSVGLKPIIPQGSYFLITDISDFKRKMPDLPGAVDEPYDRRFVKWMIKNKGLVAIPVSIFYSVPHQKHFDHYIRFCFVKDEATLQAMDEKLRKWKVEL
Method: (§1) Sf9 cells infected with baculovirus containing human CCBL1 gene were centrifuged and thereby pelletized and dissolved in 50 mM phosphate buffer solution (pH 8.0) containing 300 mM NaCl and 10 mM imidazole. After ultrasonic treatment, the cell lysate was centrifuged at 10,000×g at 4° C. for 20 minutes, and recombinant CCBL1 in the supernatant was added to a pre-equalized Ni-NTA resin (QIAGEN). An enzyme/resin composite was transferred to a column and washed with a buffer solution containing 300 mM NaCl and 20 mM imidazole in 50 mM phosphate buffer solution (pH 8.0), and recombinant CCBL1 was eluted with a buffer solution (pH 8.0) containing 300 mM NaCl, 250 mM imidazole, and 50 mM phosphate. The enzyme fraction was pooled based on the purity determined by using SDS-PAGE and desalted by using a PD-10 column (GE Healthcare, U.K.)
The CCBL1 inhibitory compound was obtained by screening KAT1 inhibitory activity of compounds included in a compound library (The Spectrum Collection) provided by Center for Supporting Drug Discovery and Life Science Research in Graduate School of Pharmaceutical Sciences, Osaka University. Here, 10 ng/μl recombinant CCBL, 1 mM L-kynurenine, 1 mM sodium pyruvate, 100 μM PLP, and 0.005% Tween 20 mixture solution contained in 150 mM of 2-amino-2-methyl-1-propanol buffer solution were added to a 384-well plate containing 10 μM of the compound and then incubated at room temperature for 2 hours. Subsequently, 20 μL of 300 mM zinc acetate solution was added thereto, and the fluorescent intensities at an excitation wavelength 340 nm and a fluorescent wavelength 460 nm were measured by Infinite M1000 plate reader (TECAN). The Control without containing the compound was defined as reaction 100%, the Background without containing any enzyme was defined as reaction 0%, and the inhibitory activity of the compound (Sample) was calculated based on the following equation.

[4] = system: CCBL1 overexpressed LLC/PK1 cells; experiment: Cell viability assay, cisplatin-induced renal tubular cell death; assay type: cell-based; details: 24 hours
Method: (§2) LLC/PK1 (pig kidney epithelium), LLC (Lewis lung cancer), and MDA-MB-231 (human breast cancer) cells were obtained from JCRB cell bank (Japan). The LLC/PK1 cells were transfected by a human CCBL1 expression vector, CCBL1 stable overexpression cells were cloned into CCBL1 overexpressed LLC/PK1 cells, which were used for further experiments. The CCBL1 overexpressed LLC/PK1 cells were proliferated in 199/EBSS culture medium (10% FBS, 1% penicillin/streptomycin, and 400 μg/ml of G418), and LLC and MDA-MB-231 cells were proliferated at 37° C. under humidified atmosphere of 5% CO2 in DMEM culture medium (10% FBS and 1% penicillin/streptomycin).
(§3) A cell viability assay kit was used to measure the cell viability. […] The absorbance at 490 nm was measured by using a microplate reader (Molecular Devices, USA). The cell viability was calculated as a value of the absorbance of treated cells relative to the absorbance of untreated cells.
(§4) To examine whether or not the compound X prevents cisplatin-induced renal uriniferous tubular cell death, CCBL1 overexpressed LLC/PK1 cells were treated with different concentrations of cisplatin and the compound X for 24 hours, and the cell viability was evaluated by cell proliferation assay. The expression amount of human CCBL1 in LLC-PK1 cells was determined by immunoblotting. […]

recombinant human CCBL1 = target: T2, recombinant human CCBL1 (Homo sapiens, UniProt Q16773); experiment: Inhibition of CCBL1 beta-elimination activity by compound; assay type: biochemical; details: recombinant human CCBL1, compound at different concentrations
T2 construct: made in house; host or cells: Sf9 insect cells (baculovirus)
T2 sequence (Q16773 1-422): T1 sequence (Q16773 1-422)
Method: as §1
The beta-elimination activity of CCBL1 was measured in accordance with a method described in “Arun Kumar Selvam et al., “A Novel Assay Method to Determine the—Elimination of Se-Methylselenocysteine to Monomethylselenol by Kynurenine Amino transferase 1” Antioxidants 2020, 9, 139; doi: 10. 3390/antiox 9020139″. […] Subsequently, 70 μL of the assay mixture was incubated at 37° C. for 10 minutes, 130 μL of 1M NaOH was added thereto, and the increase in the absorbance at 520 nm was measured by using a spectrophotometer (Nivo Multiplate Microplate Reader, PerkinElmer). […]

[5] = system: Lewis lung cancer cell lines (LLC cells); experiment: Cell viability assay, cisplatin-induced tumor cell death; assay type: cell-based; details: with cisplatin, 24 hours
Method: as §2, §3, §4

[6] = system: human breast cancer cell lines (MDA-MB-231 cells); experiment: as above; assay type: cell-based; details: with cisplatin, 24 hours
Method: as §2, §3, §4

[7] = cisplatin 20 mg/kg i.p. alone, tumor-bearing mice
[8] = both cisplatin and compound administered
[9] = compound plus cisplatin, tumor-bearing mice
[10] = compound and cisplatin versus cisplatin alone

N.N.[Cl][Pt][Cl] [cisplatin]
tumor size, cisplatin ([1]; cisplatin 20 mg/kg i.p.): reduced the tumor size | body weight, cisplatin alone [1, 7]: reduced the body weight | relative kidney weight, cisplatin alone [1, 7]: increased the relative kidney weight | BUN level in serum, cisplatin alone ([2]; cisplatin 20 mg/kg i.p. alone): increased the Cre and BUN levels | Cre level in serum, cisplatin alone ([2]; cisplatin 20 mg/kg i.p. alone): increased the Cre and BUN levels | body weight, cisplatin alone ([2]; cisplatin 20 mg/kg i.p. alone): reduced the body weight | relative kidney weight, cisplatin alone ([2]; cisplatin 20 mg/kg i.p. alone): increased the relative kidney weight

CC(=O)c1c(O)cc(O)cc1O [compound X, 2,4,6-trihydroxyacetophenone]
BUN level in serum, compound administered alone [3]: no change in the Cre and BUN levels was found | Cre level in serum, compound administered alone [3]: no change in the Cre and BUN levels was found | injury of renal uriniferous tubular cells, compound alone (histopathology) [3]: does not injure renal uriniferous tubular cells | inhibition at 10 µM (recombinant CCBL1 (KAT1)): 88.6% | LLC-PK1 cell death (cell viability) without cisplatin ([4]; cisplatin 0 μM): did not affect the LLC-PK1 cell death | cisplatin-induced renal tubular cell death (cell viability) ([4]; cisplatin 50 μM): prevented the cisplatin-induced renal tubular cell death in a dose dependent manner | body weight change [1, 8]: the body weight changed little | relative kidney weight [1, 8]: the relative kidney weight decreased | tumor size reduction by cisplatin when compound is co-administered ([1]; compound 100 mg/kg i.p. 30 minutes before cisplatin 20 mg/kg): this effect did not change | renal uriniferous tubular damage score ([1]; compound plus cisplatin versus cisplatin alone): reduces the renal uriniferous tubular damage score | BUN concentration in serum [1, 9]: reduced the increase in the cisplatin-induced BUN and Cre in a dose dependent manner | Cre concentration in serum [1, 9]: reduced the increase in the cisplatin-induced BUN and Cre in a dose dependent manner | inhibitory activity to CCBL1 β elimination activity (recombinant human CCBL1): inhibited by the compound X in a concentration dependent manner | relative kidney weight ([2]; both cisplatin (20 mg/kg i.p.) and compound administered): did not increase the relative kidney weight | BUN level in serum [2]: reduces the Cre and BUN levels in a dose dependent manner | Cre level in serum [2]: reduces the Cre and BUN levels in a dose dependent manner | BAX level in kidney (immunoblotting) [2, 10]: decreased | Cleaved Caspase-3 level in kidney (immunoblotting) [2, 10]: decreased | cisplatin-induced renal tubular cell death (histopathological observation, PAS stain) ([2]; compound plus cisplatin): suppresses the cisplatin-induced renal tubular cell death in a dose dependent manner | tubular injury score ([2]; group of cisplatin and compound versus only cisplatin): lower tubular injury scores than the group of only cisplatin | cisplatin-induced tumor cell death (cell viability) [5]: did not affect the cisplatin-induced tumor cell death | cisplatin-induced tumor cell death (cell viability) [6]: did not affect the cisplatin-induced tumor cell death

COc1cc(O)c(C(C)=O)c(O)c1 [4-O-METHYLPHLORACETOPHENONE, 4-O-methylphloracetophenone, reference compound]
inhibition at 10 µM (recombinant CCBL1 (KAT1)): 5.6% | CCBL1 (KAT1) inhibitory activity, in words (recombinant CCBL1 (KAT1)): exhibits little CCBL1 inhibitory activity

CCC(=O)c1c(O)cc(O)cc1O [FLOPROPIONE, 1-(2,4,6-trihydroxyphenyl) propan-1-one]
inhibition at 10 µM (recombinant CCBL1 (KAT1)): 71.9% | inhibitory activity to CCBL1 β elimination activity (recombinant human CCBL1): inhibited by flopropione in a concentration dependent manner | BUN level in serum [2]: reduced Cre and BUN in a dose dependent manner | Cre level in serum [2]: reduced Cre and BUN in a dose dependent manner | BUN level in serum, compound administered alone ([2]; compound alone, no cisplatin): no change was found in the Cre and BUN levels | Cre level in serum, compound administered alone ([2]; compound alone, no cisplatin): no change was found in the Cre and BUN levels

O=C(CCc1ccc(O)cc1)c1c(O)cc(O)cc1O [PHLORETIN, 3-(4-hydroxyphenyl)-1-(2,4,6-trihydroxyphenyl) propan-1-one]
inhibition at 10 µM (recombinant CCBL1 (KAT1)): 83% | CCBL1 (KAT1) inhibitory activity, in words (recombinant CCBL1 (KAT1)): has a CCBL1 inhibitory function

From patent publication US20250312292A1, “PHARMACEUTICAL COMPOSITION FOR USE IN THERAPEUTIC OR PROPHYLACTIC METHOD FOR KIDNEY INJURY, COMBINED MEDICINE CONTAINING SAID PHARMACEUTICAL COMPOSITION, AND CCBL1 INHIBITOR” (FUJITA ACADEMY, priority 2022, published 2025)
